Molecular target: T1, Neutrophil elastase (Homo sapiens, UniProt P08246)
T1 sequence (P08246 whole entry): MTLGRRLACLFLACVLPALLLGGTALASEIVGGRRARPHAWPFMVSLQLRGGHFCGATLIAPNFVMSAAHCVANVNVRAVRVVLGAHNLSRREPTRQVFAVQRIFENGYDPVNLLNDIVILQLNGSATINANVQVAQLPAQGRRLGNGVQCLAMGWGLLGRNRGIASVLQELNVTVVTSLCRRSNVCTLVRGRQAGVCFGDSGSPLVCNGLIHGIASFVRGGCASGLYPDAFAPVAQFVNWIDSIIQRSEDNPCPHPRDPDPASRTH
Experiment: Inhibitory activity was measured against human leukocyte elastase.

SMILES | IC50
O=C(Nc1ccc(C(=O)OCN2C(=O)c3ccccc3S2(=O)=O)cc1)OCc1ccccc1 | 2660 nM
O=C(CCCCNC(=O)OCc1ccccc1)OCN1C(=O)c2ccccc2S1(=O)=O | 1440 nM
O=C(CCNC(=O)OCc1ccccc1)OCN1C(=O)c2ccccc2S1(=O)=O | 2260 nM

Molecular target: Prothrombin (Homo sapiens, UniProt P00734)
Experiment: Inhibitory activity was measured against thrombin.

SMILES | IC50
O=C(Nc1ccc(C(=O)OCN2C(=O)c3ccccc3S2(=O)=O)cc1)OCc1ccccc1 | > 33000 nM
O=C(CCCCNC(=O)OCc1ccccc1)OCN1C(=O)c2ccccc2S1(=O)=O | > 33000 nM
O=C(CCNC(=O)OCc1ccccc1)OCN1C(=O)c2ccccc2S1(=O)=O | > 33000 nM

Molecular target: Coagulation factor X (Homo sapiens, UniProt P00742)
Sequence (P00742 41-179 limits assumed): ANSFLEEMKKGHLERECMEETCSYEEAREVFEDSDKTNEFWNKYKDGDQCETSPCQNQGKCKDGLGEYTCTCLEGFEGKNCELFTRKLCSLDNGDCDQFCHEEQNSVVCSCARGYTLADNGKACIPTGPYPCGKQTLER
Sequence (P00742 235-488 limits assumed): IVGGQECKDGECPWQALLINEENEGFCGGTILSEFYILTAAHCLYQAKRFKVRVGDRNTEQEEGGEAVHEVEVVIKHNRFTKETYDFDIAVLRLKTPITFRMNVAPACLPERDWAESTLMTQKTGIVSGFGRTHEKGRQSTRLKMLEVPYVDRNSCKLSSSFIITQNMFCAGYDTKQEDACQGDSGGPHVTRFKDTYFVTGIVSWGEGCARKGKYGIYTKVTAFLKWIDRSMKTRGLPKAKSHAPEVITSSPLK
Experiment: Inhibitory activity was measured against Coagulation factor X

SMILES | IC50
O=C(CCCCNC(=O)OCc1ccccc1)OCN1C(=O)c2ccccc2S1(=O)=O | > 33000 nM
O=C(CCNC(=O)OCc1ccccc1)OCN1C(=O)c2ccccc2S1(=O)=O | > 33000 nM

Molecular target: Urokinase-type plasminogen activator (Homo sapiens, UniProt P00749)
Experiment: Inhibitory activity was measured against urokinase.

SMILES | IC50
O=C(CCCCNC(=O)OCc1ccccc1)OCN1C(=O)c2ccccc2S1(=O)=O | > 33000 nM
O=C(CCNC(=O)OCc1ccccc1)OCN1C(=O)c2ccccc2S1(=O)=O | > 33000 nM

Molecular target: Plasminogen (Homo sapiens, UniProt P00747)
Sequence (P00747 97-580 limits assumed): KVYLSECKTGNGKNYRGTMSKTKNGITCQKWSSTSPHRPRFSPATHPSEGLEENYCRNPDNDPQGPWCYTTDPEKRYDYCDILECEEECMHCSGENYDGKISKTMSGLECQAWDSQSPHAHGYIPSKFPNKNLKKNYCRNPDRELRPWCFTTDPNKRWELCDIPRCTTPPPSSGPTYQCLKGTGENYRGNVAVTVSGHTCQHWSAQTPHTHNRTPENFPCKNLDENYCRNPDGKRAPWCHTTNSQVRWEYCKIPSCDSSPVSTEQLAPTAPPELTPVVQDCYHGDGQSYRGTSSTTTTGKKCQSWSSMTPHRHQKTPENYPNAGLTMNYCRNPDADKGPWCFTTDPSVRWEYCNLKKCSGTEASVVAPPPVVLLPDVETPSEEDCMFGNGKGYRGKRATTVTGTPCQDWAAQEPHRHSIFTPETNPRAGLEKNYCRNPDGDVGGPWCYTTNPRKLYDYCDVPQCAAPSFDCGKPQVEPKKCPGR
Sequence (P00747 581-810 limits assumed): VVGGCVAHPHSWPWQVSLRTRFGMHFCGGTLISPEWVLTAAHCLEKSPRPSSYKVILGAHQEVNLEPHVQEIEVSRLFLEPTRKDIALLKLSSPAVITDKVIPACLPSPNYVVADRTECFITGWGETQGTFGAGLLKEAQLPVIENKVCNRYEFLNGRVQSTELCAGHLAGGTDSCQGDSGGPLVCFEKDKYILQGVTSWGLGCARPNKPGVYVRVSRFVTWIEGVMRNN
Experiment: Inhibitory activity was measured against plasmin.

SMILES | IC50
O=C(CCCCNC(=O)OCc1ccccc1)OCN1C(=O)c2ccccc2S1(=O)=O | 33000 nM
O=C(CCNC(=O)OCc1ccccc1)OCN1C(=O)c2ccccc2S1(=O)=O | > 33000 nM

Molecular target: Tryptase (Homo sapiens, UniProt Q9BZJ3+Q15661+Q9NRR2)
Experiment: Inhibitory activity was measured against human mast cell tryptase.
Assay type: protein assay

SMILES | IC50
CC(C)(C)OC(=O)N[C@@H](CCCCNC(=O)OCc1ccccc1)C(=O)OCN1C(=O)c2ccccc2S1(=O)=O | 352 nM
CC(C)(C)OC(=O)NCCCCCC(=O)OCN1C(=O)c2ccccc2S1(=O)=O | 5370 nM
O=C(NCc1ccc(C(=O)OCN2C(=O)c3ccccc3S2(=O)=O)cc1)OCc1ccccc1 | 352 nM
O=C(NCCc1ccccc1)c1ccc(C(=O)OCN2C(=O)c3ccccc3S2(=O)=O)cc1 | 679 nM
O=C(CCCNC(=O)OCc1ccccc1)OCN1C(=O)c2ccccc2S1(=O)=O | 349 nM
O=C(Cc1ccccc1)NCc1ccc(C(=O)OCN2C(=O)c3ccccc3S2(=O)=O)cc1 | 132 nM
O=C(NCc1ccc(C(=O)OCN2C(=O)c3ccccc3S2(=O)=O)cc1)Nc1ccccc1 | 157 nM
O=C(NCc1ccc(C(=O)OCN2C(=O)c3ccccc3S2(=O)=O)cc1)Oc1ccccc1 | 630 nM
Nc1ccc(C(=O)OCN2C(=O)c3ccccc3S2(=O)=O)cc1 | > 33000 nM
O=C(Nc1ccc(C(=O)OCN2C(=O)c3ccccc3S2(=O)=O)cc1)OCc1ccccc1 | 64.3 nM
O=C(OCN1C(=O)c2ccccc2S1(=O)=O)c1ccc(OCCOc2ccccc2)cc1 | > 33000 nM
O=C(CCCCNC(=O)OCc1ccccc1)OCN1C(=O)c2ccccc2S1(=O)=O | 110 nM
O=C(CCCCCNC(=O)OCc1ccccc1)OCN1C(=O)c2ccccc2S1(=O)=O | 436 nM
O=C(CCNC(=O)OCc1ccccc1)OCN1C(=O)c2ccccc2S1(=O)=O | 854 nM
O=C(CCc1ccccc1)Nc1ccc(C(=O)OCN2C(=O)c3ccccc3S2(=O)=O)cc1 | 170 nM
CC(C)(C)OC(=O)N[C@H](CCCCNC(=O)OCc1ccccc1)C(=O)OCN1C(=O)c2ccccc2S1(=O)=O | 12200 nM
O=C(NCc1ccccc1)Nc1ccc(C(=O)OCN2C(=O)c3ccccc3S2(=O)=O)cc1 | 950 nM
O=C(CNC(=O)OCc1ccccc1)OCN1C(=O)c2ccccc2S1(=O)=O | 6940 nM
O=C(Nc1cccc(C(=O)OCN2C(=O)c3ccccc3S2(=O)=O)c1)OCc1ccccc1 | > 33000 nM
O=C(CCNC(=O)OCc1ccccc1)NCCC(=O)OCN1C(=O)c2ccccc2S1(=O)=O | > 33000 nM

Source: ChEMBL document CHEMBL1131519, “1,2-Benzisothiazol-3-one 1,1-dioxide inhibitors of human mast cell tryptase” (J Med Chem, 1998)
